Experimental data taken from article PMC4470815, “Selective Cytotoxicity of 1,3,4-Thiadiazolium Mesoionic Derivatives on Hepatocarcinoma Cells (HepG2)” (PLoS ONE, 2015).

Molecular target: T1, ABCG2 (Homo sapiens, UniProt Q9UNQ0)
T1 sequence (Q9UNQ0 1-655): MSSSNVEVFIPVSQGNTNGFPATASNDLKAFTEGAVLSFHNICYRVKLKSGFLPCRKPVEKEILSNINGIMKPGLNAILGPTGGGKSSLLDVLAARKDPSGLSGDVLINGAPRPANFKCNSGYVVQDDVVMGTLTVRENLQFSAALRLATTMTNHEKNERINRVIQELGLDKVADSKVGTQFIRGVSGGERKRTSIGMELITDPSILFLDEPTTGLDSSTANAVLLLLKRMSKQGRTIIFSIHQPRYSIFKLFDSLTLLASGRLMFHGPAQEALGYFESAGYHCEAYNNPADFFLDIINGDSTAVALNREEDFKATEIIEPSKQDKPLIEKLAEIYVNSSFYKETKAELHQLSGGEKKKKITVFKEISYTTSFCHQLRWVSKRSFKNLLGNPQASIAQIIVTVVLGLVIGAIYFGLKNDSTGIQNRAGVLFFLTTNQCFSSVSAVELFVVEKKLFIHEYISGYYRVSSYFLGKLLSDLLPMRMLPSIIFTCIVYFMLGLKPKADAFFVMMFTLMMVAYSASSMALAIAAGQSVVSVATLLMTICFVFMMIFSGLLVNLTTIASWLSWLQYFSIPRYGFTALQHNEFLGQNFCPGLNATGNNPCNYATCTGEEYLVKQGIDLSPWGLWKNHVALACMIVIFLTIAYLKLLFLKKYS
Assay: inhibition of mitoxantrone efflux in HEK293ABCG2 cells, flow cytometry
Assay type: cell-based
Conditions: read-out: ABCG2 / EC50

SMILES | IC50 [µM]
O=[N+]([O-])c1ccc(/C=C/c2sc(Nc3ccccc3)n[n+]2-c2ccccc2)cc1 [MI-D, 4-phenyl-5-(4-nitrocinnamoyl)-1,3,4-thiadiazolium-2-phenylamine chloride] | 24.3 ± 9.6
Oc1ccc(/C=C/c2sc(Nc3ccccc3)n[n+]2-c2ccccc2)cc1 [MI-J] | 8.5 ± 4.8
